The values that follow come from patent US9175282B2, “Cellobiose 2-epimerase, its preparation and uses” (HAYASHIBARA CO., LTD., priority 2009, dated 2015).

Where two headings read alike, the source gives them in different places.

Experiment [1] relates to cellobiose 2-epimerase. In words: Effect of metal ions on the epimerase activity. Conditions: for Inhibition of the epimerase activity by metal ion: 1 mM. The experiment is classed as biochemical, Caldicellusiruptor saccharolyticus ATCC43494.
The conditions of experiment [2]: ingested in rat; cited from earlier work.
For experiment [3], the system named is recombinant cellobiose 2-epimerase. In words: Formation of isomerized saccharides from various saccharides, effect of the amount of enzyme. The experiment is classed as biochemical, Caldicellulosiruptor saccharolyticus ATCC43494. Conditions: for Action of the enzyme on the substrate: summary of Table 5; for Content of isomerized saccharide in the reaction mixture (%): Epilactose / Content of isomerized saccharide in the reaction mixture (%): Lactulose: GC analysis. The method, then: Each of them was dissolved into 20 mM acetate buffer (pH 6.0), admixed with the purified preparation of the recombinant cellobiose 2-epimerase, obtained by the method in Experiment 4-4, and followed the enzyme reaction under the conditions of 10% (w/v) substrate concentration, 60° C. for 72 hours. The amount of enzyme was set to 130 or 500 units/g-substrate when monosaccharide was used as the substrate, and to 1 or 130 units/g-substrate when disaccharide or trisaccharide was used as the substrate. Each reaction mixture was heated at 100° C. for 10 minutes to stop the reaction and subjected to HPLC analysis to determine the contents of isomerized saccharide, on a dry solid basis. The contents of epilactose and lactulose in the reaction mixture obtained using lactose as substrate were determined by GC analysis described in Experiment 1-2.

Experiment [4] has the same test system. In words: Substrate specificity of cellobiose 2-epimerase by TLC. The experiment is classed as biochemical, Caldicellulosiruptor saccharolyticus ATCC43494. Set-up: key to Action: −: No product is detected; ±: Some products are slightly detected; +: Some products are detected; ++: Some products are clearly detected. The conditions noted are these: for Action: 2% (w/w) substrate, MOPS buffer pH 8.0, 500 units/g-substrate, 60° C., 24 hours, product spot on TLC; for Action of the enzyme on the saccharide: summary of Table 3. The method, then:
Substrate specificity of the enzyme was investigated by allowing the purified preparation of the recombinant cellobiose 2-epimerase, obtained by the method of Experiment 4-4, to act on various saccharides. Substrate solutions were prepared by dissolving D-glucose, D-xylose, D-allose, D-ribose, D-galactose, D-fructose, D-mannose, D-psicose, D-tagatose, L-sorbose, L-rhamnose, L-ribose, trehalose, kojibiose, nigerose, isomaltose, neotrehalose, gentiobiose, lactose, sucrose, maltulose, palatinose, maltose, maltotriose, maltotetraose, maltopentaose, maltohexaose, maltoheptaose, cellobiose, cellotriose, cellotetraose, selaginose, isomaltosyl-glucoside, isomaltotriose, panose, isopanose, erlose, maltitol, maltotriitol, methyl-α-glucoside, methyl-β-glucoside, D-glucosamine, D-galactosamine, D-glucuronic acid, N-acetyl-glucosamine, or N-acetyl-galactosamine into MOPS buffer (pH 8.0) to give a final concentration of 2% (w/w) of saccharide and 40 mM buffer.
Then, each of the resulting substrate solutions was further admixed with 500 units/g-substrate, on a dry solid basis, of the purified preparation of recombinant cellobiose 2-epimerase, obtained by the method in Experiment 4-4, and followed by the enzyme reaction at 60° C. for 24 hours. After stopping the reaction by heating the reaction mixture at 100° C. for 10 minutes, each reaction mixture was subjected to TLC analysis under the conditions in Experiment 1-2 to examine the saccharides in each mixture before and after the reaction. The substrate specificity of the enzyme was judged by investigating whether the spot of the reaction product except for the substrate is detected in the TLC chromatogram or not, and the degree of the strength of the visualized spot.

Experiment [5] shares this test system. In words: Isomerized saccharides formed from monosaccharides (HPLC). The experiment is classed as biochemical, Caldicellulosiruptor saccharolyticus ATCC43494. The method, then:
Reaction products formed from D-glucose, D-galactose, and D-mannose by the action of the cellobiose 2-epimerase of the present invention were investigated. D-Glucose, D-galactose, or D-mannose was dissolved into 50 mM acetate buffer (pH 6.0) to give a final concentration of 20% (w/v) to make into a substrate solution. To 0.1 ml of the substrate solution, 130 units/g-solid substrate for D-glucose and D-mannose (0.1 ml as the enzyme solution), or 500 units/g-solid substrate for D-galactose (0.1 ml as the enzyme solution), of the purified preparation of the recombinant cellobiose 2-epimerase, obtained by the method in Experiment 4-4, was admixed; and followed the enzyme reaction at 60° C. for 48 hours.
After the completion of the reaction, reaction mixture was heated at 100° C. for 10 minutes to stop the reaction. Each reaction mixture was subjected to HPLC analysis for determining the product. HPLC analysis of the products in the reaction mixture was carried out under the following conditions for separating monosaccharides.

[6] abbreviates: 1 unit/g-substrate, 10% (w/v) substrate, pH 6.0, 60° C., 72 hours.
[7] abbreviates: 130 units/g-substrate, 10% (w/v) substrate, pH 6.0, 60° C., 72 hours.
Where [8] appears, read: 130 units/g-substrate, pH 6.0, 60° C., 48 hours.
Where [9] appears, read: 500 units/g-substrate, 10% (w/v) substrate, pH 6.0, 60° C., 72 hours.
The mark [10] stands for this setting: 500 units/g-substrate, pH 6.0, 60° C., 48 hours.

On to `[Cl][Cu][Cl]` [CuCl2], for which the “Inhibition of the epimerase activity by metal ion” value (from here on “Inhibition”) in experiment [1] was “almost completely inhibited”. Moreover, the “Relative activity (%)” value in experiment [1] (metal salt 1 mM, None = 100) is listed as 1%.
`O=C(O)CN(CCN(CC(=O)O)CC(=O)O)CC(=O)O` [EDTA]: the “Relative activity (%)” value in experiment [1] (metal salt 1 mM, None = 100) amounted to 99%.
Consider `[Cl][Pb][Cl]` [PbCl2], for which the “Inhibition” value in experiment [1] is on record as “inhibited”. The “Relative activity (%)” value in experiment [1] (metal salt 1 mM, None = 100) is listed as 36%.
Turning to `[Cl][Al]([Cl])[Cl]` [AlCl3], the “Inhibition” value in experiment [1] is reported as “inhibited”. For the same compound, the “Relative activity (%)” value in experiment [1] (metal salt 1 mM, None = 100) stood at 45%.
For `OC[C@H]1O[C@@H](O[C@H]2[C@H](O)[C@H](O)C(O)O[C@@H]2CO)[C@H](O)[C@@H](O)[C@H]1O` (stereo partly shown) [epilactose], in experiment [2], the “Amount of short-chain fatty acid in the intestine” value is “increasing the amount of short-chain fatty acid in the intestine”, the “Calcium absorption in the small intestine” value is “promoting calcium absorption in the small intestine” and the Plasma cholesterol level entry was “lowering the plasma cholesterol level”.
`[Cl][Fe][Cl]` [FeCl2]: the “Relative activity (%)” value in experiment [1] (metal salt 1 mM, None = 100) is reported as 35%.
On the same count and under the same terms, in the case of `NC(CO)(CO)CO` [Tris] it was 93%.
Turning to `O=C[C@H](O)[C@@H](O)[C@H](O[C@@H]1O[C@H](CO)[C@@H](O)[C@H](O)[C@H]1O)[C@H](O)CO` [Cellobiose], in experiment [3] (setting [6]), the “Content of isomerized saccharide in the reaction mixture (%): Cellobiulose” value amounted to 1.7% and the “Content of isomerized saccharide in the reaction mixture (%): Epicellobiose” value is recorded as 27.8%. Besides, in experiment [3] (setting [7]), the “Content of isomerized saccharide in the reaction mixture (%): Cellobiulose” value is 53.2% and the “Content of isomerized saccharide in the reaction mixture (%): Epicellobiose” value is recorded as 13.4%. For the same compound, in experiment [3], the “Action of the enzyme on the substrate” value was “relatively specifically acted”. Moreover, in experiment [4], the Action result is on record as “++” and the “Action of the enzyme on the saccharide” value is “relatively strong specificity”.
Take `OC[C@H]1O[C@@H](O[C@H]2[C@H](O)[C@@H](O)C(O)O[C@@H]2CO)[C@H](O)[C@@H](O)[C@H]1O` (stereo partly shown) [Lactose]: in experiment [3] (setting [6]), the “Content of isomerized saccharide in the reaction mixture (%): Epilactose” value stood at 32.0% and the “Content of isomerized saccharide in the reaction mixture (%): Lactulose” value is listed as 0.0%. In experiment [3] (setting [7]), the “Content of isomerized saccharide in the reaction mixture (%): Epilactose” value came out at 12.8% and the “Content of isomerized saccharide in the reaction mixture (%): Lactulose” value was 57.5%. For the same compound, the “Action of the enzyme on the substrate” value in experiment [3] is reported as “relatively specifically acted”. In experiment [4], the Action result is on record as “++” and the “Action of the enzyme on the saccharide” value is “relatively strong specificity”.
With `[Cl][Ni][Cl]` [NiCl2], the “Relative activity (%)” value in experiment [1] (metal salt 1 mM, None = 100) is 103%.
Still for that read-out and setting: in the case of `[Cl][Mn][Cl]` [MnCl2] it was 104%.
`O=C[C@@H](O)[C@@H](O)[C@H](O)[C@H](O)CO` [D-Mannose]: in experiment [3] (setting [7]), the “Content of isomerized saccharide in the reaction mixture (%): D-Fructose” value (“Content … (%): D-Fructose” for short) was 6.6% and the “Content of isomerized saccharide in the reaction mixture (%): D-Glucose” value is 45.8%. In addition, in experiment [4], the Action result is recorded as “+” and the “Action of the enzyme on the saccharide” value is recorded as “acted on”. In experiment [5] (setting [8]), the “Content (%, w/w) of product D-Fructose” value was 5.1 %, w/w and the “Content (%, w/w) of product D-Glucose” value was 41.8 %, w/w.
Turning to `[Cl][Fe]([Cl])[Cl]` [FeCl3], the “Relative activity (%)” value in experiment [1] (metal salt 1 mM, None = 100) stood at 33%.
Consider `[Cl-].[Cl-].[Co+2]` [CoCl2], for which the “Relative activity (%)” value in experiment [1] came to 101%.
Turning to `[Ba+2].[Cl-].[Cl-]` [BaCl2], in experiment [1] (metal salt 1 mM, None = 100), the “Relative activity (%)” value amounted to 108%.
Consider `O=C(CO)[C@@H](O)[C@H](O)[C@H](O)CO` [D-Fructose], for which, in experiment [3] (setting [7]), the “Content of isomerized saccharide in the reaction mixture (%): D-Glucose” value is 2.2% and the “Content of isomerized saccharide in the reaction mixture (%): D-Mannose” value (“Content … (%): D-Mannose” below) is reported as 2.2%. Moreover, in experiment [4], the Action entry was “±” and the “Action of the enzyme on the saccharide” value is on record as “slightly acted on”.
As to `O=C[C@H](O)[C@@H](O)[C@@H](O)[C@H](O)CO` [D-Galactose], in experiment [3] (setting [9]), the “Content of isomerized saccharide in the reaction mixture (%): D-Tagatose” value came to 9.2% and the “Content of isomerized saccharide in the reaction mixture (%): D-Talose” value is recorded as 11.0%. Besides, in experiment [4], the Action result is “±” and the “Action of the enzyme on the saccharide” value is listed as “slightly acted on”. Also, the “Action of the enzyme compared with D-glucose and D-mannose” value in experiment [5] is on record as “relatively weak”. Besides, in experiment [5] (setting [10]), the “Content (%, w/w) of product D-Tagatose” value is listed as 8.4 %, w/w and the “Content (%, w/w) of product D-Talose” value is on record as 10.3 %, w/w.
With `O=C[C@H](O)[C@@H](O)[C@H](O)[C@H](O)CO` [D-Glucose], in experiment [3] (setting [7]), the “Content … (%): D-Fructose” value amounted to 5.0% and the “Content … (%): D-Mannose” value was determined as 20.9%. In experiment [3] (setting [9]), the “Content … (%): D-Fructose” value is recorded as 9.2% and the “Content … (%): D-Mannose” value is listed as 23.3%. Also, in experiment [4], the Action entry was “+” and the “Action of the enzyme on the saccharide” value was “acted on”. In experiment [5] (setting [8]), the “Content (%, w/w) of product D-Fructose” value is listed as 3.8 %, w/w and the “Content (%, w/w) of product D-Mannose” value is on record as 20.6 %, w/w.
Consider `[Cl][Hg][Cl]` [HgCl2], for which the “Inhibition” value in experiment [1] is “almost completely inhibited”. In experiment [1] (metal salt 1 mM, None = 100), the “Relative activity (%)” value is 1%.
As for Maltotriose, the “Content of isomerized saccharide in the reaction mixture (%): Epimaltotriose” value in experiment [3] (setting [7]) amounted to 23.3%. Besides, in experiment [4], the Action entry is “+” and the “Action of the enzyme on the saccharide” value is “acted on”.
`[Cl-].[Cl-].[Zn+2]` [ZnCl2]: in experiment [1], the “Inhibition” value is “almost completely inhibited”. In addition, the “Relative activity (%)” value in experiment [1] (metal salt 1 mM, None = 100) was 1%.
Take `[Ca+2].[Cl-].[Cl-]` [CaCl2]: the “Relative activity (%)” value in experiment [1] (metal salt 1 mM, None = 100) is given as 107%.
For the compound `OC[C@H]1O[C@H](O[C@H]2[C@H](O)[C@@H](O)[C@H](O)O[C@@H]2CO)[C@H](O)[C@@H](O)[C@@H]1O` [Maltose], in experiment [3] (setting [7]), the “Content of isomerized saccharide in the reaction mixture (%): Epimaltose” value is 22.2% and the “Content of isomerized saccharide in the reaction mixture (%): Maltulose” value is listed as 7.7%. In experiment [4], the Action entry is “+” and the “Action of the enzyme on the saccharide” value was “acted on”.
For `[Cl-].[Cl-].[Sr+2]` [SrCl2], the “Relative activity (%)” value in experiment [1] (metal salt 1 mM, None = 100) is recorded as 104%.
On the same count and under the same terms, in the case of `[Cl-].[Cl-].[Mg+2]` [MgCl2] it was 106%.
